From US8399452B2, “Dibenzo[b,f][1,4]oxazepin-11-yl-N-hydroxybenzamides as HDAC inhibitors” (Methylgene Inc., priority 2006, dated 2013)

Molecular target: histone deacetylase (HDAC Enzyme)
Test: Inhibition of Histone Deacetylase Enzymatic Activity (Boc-Lys(Ac)-AMC, Fluor-de-Lys developer)
Assay type: biochemical
Conditions: Table 9; read-out: HDAC Inhibition (IC50 μM) HDAC Enzyme
Description: The following protocol is used to assay the compounds of the invention.
The mixture is pre-incubated for 5 minutes at room temperature. The reaction is started by bringing the temperature to 37° C. and adding 16 μl substrate. Total reaction volume is 50 μl.
In the Tables 8, 9 and 10, A≦[…]<B≦0.1 μM; 0.1 μM<C≦1 μM; and 1 μM<D≦10 μM.

`O=C(NO)c1cnc(N2C[C@@H]3C[C@H]2CN3C(=O)c2ccccc2)nc1` [2-((1S,4S)-5-benzoyl-2,5-diazabicyclo[2.2.1]heptan-2-yl)-N-hydroxypyrimidine-5-carboxamide] and `O=C(NO)c1cnc(N2C[C@@H]3C[C@H]2CN3C(=O)OCc2ccccc2)nc1` [(1S,4S)-benzyl 5-(5-(hydroxycarbamoyl)pyrimidin-2-yl)-2,5-diazabicyclo[2.2.1]heptane-2-carboxylate] cannot be ordered by IC50: < 0.05 µM for the first, < 0.05 µM for the second.

First: CN(C)Cc1cccc(N2C[C@@H]3C[C@H]2CN3c2ncc(C(=O)NO)cn2)c1 [2-((1S,4S)-5-(3-((dimethylamino)methyl)phenyl)-2,5-diazabicyclo[2.2.1]heptan-2-yl)-N-hydroxypyrimidine-5-carboxamide]
Second: Cc1cccc(N2C[C@H]3C[C@@H]2CN3c2ncc(C(=O)NO)cn2)c1 [N-hydroxy-2-((1R,4R)-5-m-tolyl-2,5-diazabicyclo[2.2.1]heptan-2-yl)pyrimidine-5-carboxamide]
The IC50 of the first is lower: < 0.05 µM for the first, 0.05 to 0.1 µM for the second.

`O=C(NO)c1cnc(N2C[C@@H]3C[C@H]2CN3c2cncc(C(F)(F)F)c2)nc1` [N-hydroxy-2-((1S,4S)-5-(5-(trifluoromethyl)pyridin-3-yl)-2,5-diazabicyclo[2.2.1]heptan-2-yl)pyrimidine-5-carboxamide] and `O=C(NO)c1cnc(N2C[C@@H]3C[C@H]2CN3c2cccc(OC(F)(F)F)c2)nc1` [N-hydroxy-2-((1S,4S)-5-(3-(trifluoromethoxy)phenyl)-2,5-diazabicyclo[2.2.1]heptan-2-yl)pyrimidine-5-carboxamide] cannot be ordered by IC50: < 0.05 µM for the first, < 0.05 µM for the second.

`Cc1ccc(N2CC3CC2CN3c2ccc(C(=O)NO)cn2)cc1` (stereo not drawn) [N-hydroxy-6-(5-p-tolyl-2,5-diazabicyclo[2.2.1]heptan-2-yl)nicotinamide] and `Cc1cccc(N2C[C@@H]3C[C@H]2CN3c2ncc(C(=O)NO)cn2)c1` [N-hydroxy-2-((1S,4S)-5-m-tolyl-2,5-diazabicyclo[2.2.1]heptan-2-yl)pyrimidine-5-carboxamide] cannot be ordered by IC50: < 0.05 µM for the first, < 0.05 µM for the second.

First: O=C(NO)c1cnc(N2C[C@@H]3C[C@H]2CN3c2cccc(SC(F)(F)F)c2)nc1 [N-hydroxy-2-((1S,4S)-5-(3-(trifluoromethylthio)phenyl)-2,5-diazabicyclo[2.2.1]heptan-2-yl)pyrimidine-5-carboxamide]
Second: O=C(NO)c1cnc(N2C[C@@H]3C[C@H]2CN3Cc2ccccc2)nc1 [2-((1S,4S)-5-benzyl-2,5-diazabicyclo[2.2.1]heptan-2-yl)-N-hydroxypyrimidine-5-carboxamide]
The IC50 of the first is lower: < 0.05 µM for the first, 0.1 to 1 µM for the second. The first is the more potent here.

Same assay, conditions: Table 10; read-out: HDAC Inhibition (IC50 μM) HDAC Enzyme

First: O=C(/C=C/c1ccc(CNC2c3ccccc3CCc3ccccc32)cc1)NO
Second: O=C(CCCCCON=C1c2ccccc2CCc2ccccc21)NO
The IC50 of the first is lower: 0.05 to 0.1 µM for the first, 0.1 to 1 µM for the second.

`O=C(NO)c1ccc(CN2C(=O)c3cccnc3N(C3CC3)c3ccccc32)cc1` [4-((11-cyclopropyl-5-oxo-5H-benzo[b]pyrido[2,3-e][1,4]diazepin-6(11H)-yl)methyl)-N-hydroxybenzamide] and `O=C(NO)c1cnc(OC(c2ccc(F)cc2)c2ccc(F)cc2)nc1` [2-(bis(4-fluorophenyl)methoxy)-N-hydroxypyrimidine-5-carboxamide] fall in the same range of IC50: 0.1 to 1 µM for the first, 0.1 to 1 µM for the second.

`O=C(NO)c1cccc(CN2c3ccccc3Sc3ccccc32)c1` [3-((10H-phenothiazin-10-yl)methyl)-N-hydroxybenzamide] and `O=C(NO)c1cccc(CN2c3ccccc3C=Cc3ccccc32)c1` [(Z)-3-((5H-dibenzo[b,f]azepin-5-yl)methyl)-N-hydroxybenzamide] fall in the same range of IC50: 0.1 to 1 µM for the first, 0.1 to 1 µM for the second.

First: (Z)-N-(5H-dibenzo[b,f]azepin-5-yl)methyl)benzyl)-N-hydroxyformamide
Second: O=C(C=C1c2ccccc2CCc2ccccc21)NO
The IC50 of the first is lower: 0.1 to 1 µM for the first, 1 to 10 µM for the second.

Compared with `O=C(NO)c1ccc(CNC2c3ccccc3COc3ccccc32)cc1` (stereo not drawn) [4-((6,11-dihydrodibenzo[b,e]oxepin-11-ylamino)methyl)-N-hydroxybenzamide], `O=C(NO)c1cccc(CN2c3ccccc3Oc3ccccc32)c1` [3-((10H-phenoxazin-10-yl)methyl)-N-hydroxybenzamide] is higher in IC50: 0.1 to 1 µM for the first, 1 to 10 µM for the second. The first is the more potent here.

`O=C(NO)c1cnc(C2c3ccccc3C=Cc3ccccc32)nc1` and `O=C(/C=C/c1ccc2c(c1)C=Cc1ccccc1N2CC1CC1)NO` [(E)-3-((Z)-5-(cyclopropylmethyl)-5H-dibenzo[b,f]azepin-2-yl)-N-hydroxyacrylamide] fall in the same range of IC50: 0.1 to 1 µM for the first, 0.1 to 1 µM for the second.

`O=C(CCCCCN1c2ccccc2C=Cc2ccccc21)NO` [(Z)-6-(5H-dibenzo[b,f]azepin-5-yl)-N-hydroxyhexanamide] and `O=C(CCCCCN1C(=O)c2ccccc2Oc2ccccc21)NO` [N-hydroxy-6-(11-oxodibenzo[b,f][1,4]oxazepin-10(11H)-yl)hexanamide] cannot be ordered by IC50: < 0.05 µM for the first, < 0.05 µM for the second.

First: O=C(NO)c1ccc(CN2C(=O)c3ccccc3Oc3ccccc32)cc1 [N-hydroxy-4-((11-oxodibenzo[b,f][1,4]oxazepin-10(11H)-yl)methyl)benzamide]
Second: O=C(NO)c1ccc(COC2c3ccccc3CCc3ccccc32)cc1
The IC50 of the first is lower: < 0.05 µM for the first, 0.1 to 1 µM for the second.

Same assay, conditions: read-out: HDAC Inhibtion (IC50 μM) HDAC Enzyme

Compared with `O=C(NO)c1ccc(C2=Nc3ccccc3S(=O)(=O)c3ccccc32)cc1`, `O=C(NO)c1ccc(C2=Nc3ccccc3[S+]([O-])c3ccccc32)cc1` (stereo not drawn) is lower in IC50: 1 to 10 µM for the first, 0.1 to 1 µM for the second.

First: O=C(NO)c1ccc(CCNC2=Nc3ccccc3Oc3ccccc32)cc1 [(E)-4-(2-(dibenzo[b,f][1,4]oxazepin-11-ylamino)ethyl)-N-hydroxybenzamide]
Second: O=C(NO)c1ccc(C2=Nc3ccccc3Oc3ccccc32)o1 [(E)-5-(dibenzo[b,f][1,4]oxazepin-11-yl)-N-hydroxyfuran-2-carboxamide]
The IC50 of the first is lower: 0.1 to 1 µM for the first, 1 to 10 µM for the second. The first is the more potent here.

Compared with `O=C(NO)c1ccc(C2=Nc3cc(Cl)ccc3Oc3ccccc32)cc1` [(Z)-4-(8-chlorodibenzo[b,f][1,4]oxazepin-11-yl)-N-hydroxybenzamide], `O=C(NO)c1ccc(C2=Nc3ccccc3Oc3ccc(F)cc32)cc1` [(Z)-4-(2-fluorodibenzo[b,f][1,4]oxazepin-11-yl)-N-hydroxybenzamide] is lower in IC50: 0.1 to 1 µM for the first, < 0.05 µM for the second.

`C[S+]([O-])c1cccc2c1Oc1ccccc1N=C2c1ccc(C(=O)NO)cc1` (stereo not drawn) [(Z)-N-hydroxy-4-(4-(methylsulfinyl)dibenzo[b,f][1,4]oxazepin-11-yl)benzamide] and `Cc1cccc2c1Oc1ccccc1N=C2c1ccc(C(=O)NO)cc1` [(Z)-N-hydroxy-4-(4-methyldibenzo[b,f][1,4]oxazepin-11-yl)benzamide] fall in the same range of IC50: 0.05 to 0.1 µM for the first, 0.05 to 0.1 µM for the second.

First: O=C(NO)c1ccc(C2Nc3ccccc3Oc3ccccc32)cc1 (stereo not drawn) [4-(10,11-dihydrodibenzo[b,f][1,4]oxazepin-11-yl)-N-hydroxybenzamide]
Second: COc1cccc2c1C(c1ccc(C(=O)NO)cc1)=Nc1ccccc1O2 [(Z)-N-hydroxy-4-(1-methoxydibenzo[b,f][1,4]oxazepin-11-yl)benzamide]
The IC50 of the first is lower: < 0.05 µM for the first, 0.1 to 1 µM for the second.

First: O=C(NO)c1ccc(C2=Nc3ccccc3Oc3c(F)cccc32)cc1 [(Z)-4-(4-fluorodibenzo[b,f][1,4]oxazepin-11-yl)-N-hydroxybenzamide]
Second: CSc1cccc2c1Oc1ccccc1N=C2c1ccc(C(=O)NO)cc1 [(Z)-N-hydroxy-4-(4-(methylthio)dibenzo[b,f][1,4]oxazepin-11-yl)benzamide]
The IC50 of the first is higher: 0.1 to 1 µM for the first, < 0.05 µM for the second.

Compared with `Cc1cccc2c1Oc1ccccc1C(c1ccc(C(=O)NO)cc1)=N2` [(Z)-N-hydroxy-4-(6-methyldibenzo[b,f][1,4]oxazepin-11-yl)benzamide], `O=C(NO)c1ccc(C2=Nc3cccnc3Oc3ccccc32)cc1` [(Z)-4-(benzo[f]pyrido[2,3-b][1,4]oxazepin-6-yl)-N-hydroxybenzamide] is lower in IC50: 0.1 to 1 µM for the first, < 0.05 µM for the second.

First: O=C(NO)c1ccc(C2=Nc3ccccc3N(CC3CC3)c3ncccc32)cc1 [(Z)-4-(11-(cyclopropylmethyl)-11H-benzo[b]pyrido[2,3-e][1,4]diazepin-5-yl)-N-hydroxybenzamide]
Second: O=C(NO)c1ccc(C2=Nc3ccccc3N(CCCN3CCOCC3)c3ncccc32)cc1 [(Z)-N-hydroxy-4-(11-(3-morpholinopropyl)-11H-benzo[b]pyrido[2,3-e][1,4]diazepin-5-yl)benzamide]
The IC50 of the first is higher: 1 to 10 µM for the first, 0.1 to 1 µM for the second. The second is the more potent here.

`O=C(NO)c1ccc2c(c1)N=C(c1ccncc1)c1ccccc1O2` [(Z)-N-hydroxy-11-(pyridin-4-yl)dibenzo[b,f][1,4]oxazepine-8-carboxamide] and `O=C(NO)c1ccc(C2=Nc3ccccc3Oc3cc(F)ccc32)cc1` [(Z)-4-(3-fluorodibenzo[b,f][1,4]oxazepin-11-yl)-N-hydroxybenzamide] fall in the same range of IC50: 0.1 to 1 µM for the first, 0.1 to 1 µM for the second.

First: CN1CCN(C2=Nc3cc(C(=O)NO)ccc3Oc3ccccc32)CC1
Second: O=C(NO)c1cnc(N2CCN(C3=Nc4ccccc4Oc4ccc(Cl)cc43)CC2)nc1 [(E)-2-(4-(2-chlorodibenzo[b,f][1,4]oxazepin-11-yl)piperazin-1-yl)-N-hydroxypyrimidine-5-carboxamide]
The IC50 of the first is higher: 0.1 to 1 µM for the first, < 0.05 µM for the second. The second is the more potent here.

Compared with `O=C(NO)c1ccc(C2=Nc3ccccc3Cn3cccc32)cc1` [(Z)-4-(5H-benzo[e]pyrrolo[1,2-a][1,4]diazepin-11-yl)-N-hydroxybenzamide], `O=C(NO)c1ccc(C2=Nc3ccsc3Oc3ccccc32)cc1` [(Z)-4-(benzo[f]thieno[2,3-b][1,4]oxazepin-5-yl)-N-hydroxybenzamide] is higher in IC50: < 0.05 µM for the first, 0.1 to 1 µM for the second. The first is the more potent here.

Compared with `COCCOc1cccc2c1Oc1ccccc1N=C2c1ccc(C(=O)NO)cc1` [(Z)-N-hydroxy-4-(4-(2-methoxyethoxy)dibenzo[b,f][1,4]oxazepin-11-yl)benzamide], `O=C(NO)c1ccc(C2=Nc3ccccc3N(C3CC3)c3ccc(F)cc32)cc1` [(Z)-4-(5-cyclopropyl-2-fluoro-5H-dibenzo[b,e][1,4]diazepin-11-yl)-N-hydroxybenzamide] is higher in IC50: < 0.05 µM for the first, 0.05 to 0.1 µM for the second.

Compound `O=C(NO)c1ccc(C2=Nc3ccccc3N(CCN3CCOCC3)c3ccccc32)cc1` [(Z)-N-hydroxy-4-(5-(2-morpholinoethyl)-5H-dibenzo[b,e][1,4]diazepin-11-yl)benzamide] has an IC50 of 0.1 to 1 µM.
